Results on twelve molecules are retold here after patent US4556560A, “Methods for the treatment and prophylaxis of diaper rash and diaper dermatitis” (The Procter & Gamble Company, priority 1983, dated 1985).

Data set [1] relates to lipase. Put plainly: Lipase activity of stool-free, urine-free pure lipase composition with lipase-inhibiting agent (Examples VI, VII). The data set is classed as biochemical. Also on record: LIPASE ACTIVITY: unit not given here. The following applies: for LIPASE ACTIVITY / % REDUCTION LIPASE ACTIVITY: pure lipase composition; for inhibition of lipase: inability to provide the critical level of free metal ion Zn++. The procedure: (§1) For example, the method of commerce available from Harleco® diagnostics utilizes the activity of lipase, i.e., the digestion of triglycerides to diglycerides and monoglycerides, glycerol and free fatty acids. After this digestion is allowed to proceed at the optimal buffered pH, the turbidity is measured spectrophotometrically at 400 nanometers.
In Examples VI and VII, a stool-free and urine-free pure lipase composition of the expressed activity is patched in the Hairless Mouse model as described above. This is the Control. This lipase composition is patched in combination with 0.1 ml of the lipase-inhibiting agent solution at the concentration expressed.
In this Example, a non-stool, no-urine pure lipase composition is patched in the hairless mouse model, and then in combination with a lipase-inhibiting agent at the indicated concentrations.

Data set [2] deals with lipase-related skin irritation. Put plainly: Hairless mouse patch test with pure lipase composition (Example VII). The data set is classed as in vivo, hairless mice. The following applies: 100 mM (ZnO, ZnCO3, Zn undecylenate patched as suspensions). From the text: (§2) This method may be used to determine the utility and effect of lipase-inhibiting agents, or compositions containing these agents, on primary skin irritation caused by prolonged contact of a urine/feces mixture under occluded conditions.
(§3) Male, hairless mice at 8-12 weeks of age are used for the study. The animals are housed individually in plastic shoe box cages for the experiments, and fed Purina® Rodent Laboratory Chow and tap water ad libitum. Mice are assigned numbers during each study which are posted on each cage.
(§4) The mice are cared for, and the room conditions maintained following acceptable animal study conditions.
(§5) Patch treatment compositions are prepared by taking the fecal material to be tested and mixing it with a 2% urea solution at a weight:weight ratio of 1:4 feces:urea. 0.1 ml of the lipase-inhibiting agent solution or composition of the desired concentration is patched along with 0.375 ml of the urine/feces mixture. Patches for the mice are prepared by saturating an absorbent material (such as cotton) with the feces/urine suspension, placing it on the skin and covering it with an impermeable material. For example, this may be done by cutting away the adhesive border from a 37×20 mm Webril pad. The Webril pad will then be cut into quarters to obtain 1 cm^2 patches. Each patch will be saturated with 0.1 ml of the lipase-inhibiting agent solution and 0.375 ml of the urine/feces mixture. The control patch is simply 0.375 ml of the urine/feces mixture. Prior to application of test or control patches, each mouse is anesthetized by placement into a chamber containing ether. The test patch is then placed midline on the mouse back, towards the shoulder, and covered with Blenderm® (3M) tape in order to occlude the patch site. The mouse is next wrapped with Scanpor® tape (Norgeplaster A/S) to secure the patch. After 24 hrs., the initial patch is removed and a fresh patch of test substance or a fresh control is applied, as described above. After 24 hrs., the second patch is removed, thus giving a total occluded patch time of 48 hrs.
(§6) Approximately 1 hr. after removal of the second patch, the test site skin condition is evaluated using the grading scales outlined in the following tables:
(§7) Each animal is examined by two graders, at least one of whom is blind as to the treatments applied. Both graders' scores should be calculated for each of the above categories, as well as a primary Irritation Index equalling the sum of scores for each category.
In Examples VI and VII, a stool-free and urine-free pure lipase composition of the expressed activity is patched in the Hairless Mouse model as described above. This is the Control. This lipase composition is patched in combination with 0.1 ml of the lipase-inhibiting agent solution at the concentration expressed. […]

The conditions of data set [3]: footnote to Example VII.
For data set [4] the following is noted: background statement; cited from earlier work.
Data set [5] deals with primary skin irritation caused by prolonged contact of a urine/feces mixture under occluded conditions. Put plainly: Hairless mouse patch test: feces/urea homogenate patched with lipase-inhibiting agent solution (Examples I-V). The data set is classed as in vivo, hairless mice.
Text: as §2, §3, §4, §5, §6, §7
(§8) In Examples I-V, fecal material is mixed with a 2% urea solution at a weight:weight ratio of 1:4 feces:urea, and this homogenate is patched as described above in the Hairless Mouse model with 0.375 ml of this homogenate. The pure homogenate is patched as the control. Where a specific concentration of lipase-inhibiting agent is expressed, the feces/urea homogenate is patched in combination with 0.1 ml of a solution of the described lipase-inhibiting agent solution.

In data set [6] the test system is lipase. The data set is described as follows: Relative lipase activity of the feces/urea patch with lipase-inhibiting agent (Examples I, II, IV). The data set is classed as biochemical. On the procedure: as §1, §8
[7] abbreviates: Example VII, 100 mM (ZnO, ZnCO3, Zn undecylenate patched as suspensions), control 36,750.
Setting [8] is: Example III, 100 mM, control 4.95 ± 0.45 (control lipase activity 100,000).
Where [9] appears, read: Example VI, 50 mM, lipase control 40,320.
Where [10] appears, read: Example VI, 100 mM, lipase control 40,320.
The mark [11] stands for this setting: Example V, 100 mM, control 4.45 ± 0.17.
Where [12] appears, read: Example IV, 10 mM, control 127,500.
Where [13] appears, read: Example IV, 25 mM, control 127,500.
The mark [14] stands for this setting: Example IV, 50 mM, control 127,500.
Where [15] appears, read: Example IV, 100 mM, control 127,500.
[16] abbreviates: Example I, 10 mM, 0.1 ml with 0.375 ml feces/urea homogenate, 48 hrs occluded, control 7.20 ± 0.75.
Setting [17] is: Example I, 25 mM, 0.1 ml with 0.375 ml feces/urea homogenate, 48 hrs occluded, control 7.20 ± 0.75.
Where [18] appears, read: Example I, 50 mM, 0.1 ml with 0.375 ml feces/urea homogenate, 48 hrs occluded, control 7.20 ± 0.75.
[19] abbreviates: Example I, 100 mM, 0.1 ml with 0.375 ml feces/urea homogenate, 48 hrs occluded, control 7.20 ± 0.75.
[20] abbreviates: Example I, 10 mM agent solution, control 6250.
[21] abbreviates: Example I, 25 mM agent solution, control 6250.
[22] abbreviates: Example I, 50 mM agent solution, control 6250.
[23] abbreviates: Example I, 100 mM agent solution, control 6250.

As for `C=CCCCCCCCCC(=O)[O-].C=CCCCCCCCCC(=O)[O-].[Zn+2]` [Zn undecylenate], the “LIPASE ACTIVITY” value in the data set on lipase [1] (setting [7]) was 10,080. Moreover, in data set [2], the “% REDUCTION IN IRRITATION INDEX” value is reported as 73%.
With `[O]=[Zn]` [ZnO, zinc oxide, reference compound], in the data set on lipase [1] (setting [7]), the “LIPASE ACTIVITY” value was 33,000. In the data set with lipase [1], the inhibition of lipase entry is “ineffective”. Also, the “% REDUCTION IN […]” value in data set [2] was 10%. In addition, the “concentration of solution the salt is capable of forming” value in data set [3] is 20 µM. In data set [4], the solubility in water entry was “almost totally insoluble”.
As for `[Cl][La]([Cl])[Cl]` [LaCl3, lanthanum chloride], the “IRRITATION INDEX” value in data set [5] (setting [8]) was found to be 0 ± 0.
As to `[Cl][Co][Cl]` [CoCl2, cobalt chloride], the “% REDUCTION LIPASE ACTIVITY” value with lipase [1] (Example VI, 50 mM) stood at 41%; in the data set on lipase [1] (Example VI, 100 mM) it was 81%. In addition, the “LIPASE ACTIVITY” value is 23,750 in the data set on lipase [1] (setting [9]) and 7,750 in the data set with lipase [1] (setting [10]).
Consider `[Cl][Sn][Cl]` [SnCl2, tin(II)chloride], for which the “IRRITATION INDEX” value in data set [5] (setting [11]) is given as 0.50 ± 0.16. In addition, the “% REDUCTION LIPASE ACTIVITY” value is listed as 93% with lipase [1] (Example VI, 50 mM) and 97% in the data set on lipase [1] (Example VI, 100 mM). The “LIPASE ACTIVITY” value is 3,000 with lipase [1] (setting [9]) and 1,250 with lipase [1] (setting [10]).
As to `O=S(=O)([O-])[O-].[Cu+2]` [CuSO4, copper sulfate], the “% REDUCTION LIPASE ACTIVITY” value with lipase [1] (Example VI, 50 mM) was found to be 54%; in the data set on lipase [1] (Example VI, 100 mM), 59%. Also, the “LIPASE ACTIVITY” value with lipase [1] (setting [9]) is 18,500; in the data set on lipase [1] (setting [10]), 16,500.
On to `O.O.O.O.O.O.[Cl-].[Cl-].[Cl-].[Fe+3]` [FeCl3.6H2 O, iron(III)chloride hexahydrate], for which the “RELATIVE LIPASE ACTIVITY” value with lipase [6] (setting [12]) is 177,500; in the data set with lipase [6] (setting [13]), 128,750; in the data set with lipase [6] (setting [14]) it was 111,350; in the data set on lipase [6] (setting [15]) it was 6250. Also, the “% REDUCTION LIPASE ACTIVITY” value in the data set on lipase [1] (Example VI, 50 mM) is listed as 99%; in the data set on lipase [1] (Example VI, 100 mM) it was 100%. Moreover, the figures for the “LIPASE ACTIVITY” value in the data set on lipase [1] (setting [9]) and in the data set on lipase [1] (setting [10]) were 500 and 0, respectively.
As to Zinc glycerolate, in data set [4], the solubility in water entry is recorded as “insoluble”.
Turning to `O=C([O-])[O-].[Zn+2]` [ZnCO3, zinc carbonate, reference compound], in the data set with lipase [1] (setting [7]), the “LIPASE ACTIVITY” value is recorded as 35,000. For the same molecule, the inhibition of lipase entry in the data set with lipase [1] is listed as “ineffective”. In addition, in data set [2], the “% REDUCTION IN […]” value was determined as 5%.
For the molecule `[Cl-].[Cl-].[Zn+2]` [ZnCl2, zinc chloride], the “IRRITATION INDEX” value stood at 6.05 ± 1.23 in data set [5] (setting [16]); 4.95 ± 1.36 in data set [5] (setting [17]); 0.80 ± 1.01 in data set [5] (setting [18]); 1.15 ± 0.97 in data set [5] (setting [19]); 3.50 ± 2.44 in data set [5] (Example II, 20 mM, control 6.67 ± 0.94); 4.87 ± 1.37 in data set [5] (Example II, 30 mM, control 6.67 ± 0.94). Besides, the “IRRITATION INDEX” value amounted to 2.62 ± 1.86 in data set [5] (Example II, 40 mM, control 6.67 ± 0.94); 2.54 ± 1.78 in data set [5] (Example II, 50 mM, control 6.67 ± 0.94); 1.42 ± 1.62 in data set [5] (Example II, 60 mM, control 6.67 ± 0.94); 1.17 ± 1.01 in data set [5] (Example II, 70 mM, control 6.67 ± 0.94); 0.55 ± 1.23 in data set [5] (setting [8]); 5.55 ± 0.95 in data set [5] (Example IV, 10 mM, control 6.15 ± 1.08). The “IRRITATION INDEX” value in data set [5] (Example IV, 25 mM, control 6.15 ± 1.08) is given as 0.50 ± 0.82; in data set [5] (Example IV, 50 mM, control 6.15 ± 1.08) it was 0.45 ± 0.64; in data set [5] (Example IV, 100 mM, control 6.15 ± 1.08), 1.75 ± 1.65; in data set [5] (setting [11]) it was 1.85 ± 0.61. Moreover, the “RELATIVE LIPASE ACTIVITY” value with lipase [6] (setting [20]) came to 5000; in the data set with lipase [6] (setting [21]), 0; in the data set with lipase [6] (setting [22]) it was 0; in the data set with lipase [6] (setting [23]), 0; in the data set on lipase [6] (Example II, 20 mM, control 6000), 500; in the data set on lipase [6] (Example II, 30 mM, control 6000) it was 1250. Moreover, the “RELATIVE LIPASE ACTIVITY” value in the data set with lipase [6] (Example II, 40 mM, control 6000) is 0; in the data set with lipase [6] (Example II, 50 mM, control 6000), 0; in the data set with lipase [6] (Example II, 60 mM, control 6000) it was 0; with lipase [6] (Example II, 70 mM, control 6000) it was 0; in the data set with lipase [6] (setting [12]), 72,500; in the data set with lipase [6] (setting [13]), 0. The “RELATIVE LIPASE ACTIVITY” value with lipase [6] (setting [14]) and in the data set with lipase [6] (setting [15]) was 0 in each case. Also, the “% REDUCTION LIPASE ACTIVITY” value with lipase [1] (Example VI, 50 mM) is 96%; in the data set with lipase [1] (Example VI, 100 mM), 98%. The figures for the “LIPASE ACTIVITY” value in the data set with lipase [1] (setting [9]), in the data set on lipase [1] (setting [10]) and in the data set with lipase [1] (setting [7]) were 1,500, 750 and 1,250, respectively. Besides, the “% REDUCTION IN IRRITATION INDEX” value in data set [2] is on record as 97%.
For the molecule `[Ca+2].[Cl-].[Cl-]` [CaCl2, reference compound], the “IRRITATION INDEX” value in data set [5] (setting [8]) is on record as 3.55 ± 1.10.
For the molecule `O.O.O.O.O.O=S(=O)([O-])[O-].[Cu+2]` [CuSO4.5H2 O, copper sulfate pentahydrate], the “IRRITATION INDEX” value in data set [5] (setting [16]) is recorded as 6.75 ± 1.42; in data set [5] (setting [17]) it was 5.35 ± 2.93; in data set [5] (setting [18]), 3.50 ± 3.08; in data set [5] (setting [19]) it was 5.50 ± 1.05. Also, the “RELATIVE LIPASE ACTIVITY” value in the data set with lipase [6] (setting [20]) was found to be 4750; in the data set on lipase [6] (setting [21]), 2250; with lipase [6] (setting [22]), 750; in the data set with lipase [6] (setting [23]), 0.
